From US9969726B2, “Metabotropic glutamate receptor negative allosteric modulators (NAMS) and uses thereof” (Sanford-Burnham Medical Research Institute, priority 2014, dated 2018)
Like-named read-outs stand apart in the source and are kept apart here.

Experiments:
[1] = molecular target: rat mGlu3 receptor (Rattus norvegicus (Rat), UniProt P31422); experiment: mGlu3 in vitro GIRK thallium flux assay; assay type: cell-based; details: NAM; 2.5 min compound incubation; EC80 glutamate; HEK-293 GIRK cells
rat mGlu3 receptor, sequence (P31422 23-879): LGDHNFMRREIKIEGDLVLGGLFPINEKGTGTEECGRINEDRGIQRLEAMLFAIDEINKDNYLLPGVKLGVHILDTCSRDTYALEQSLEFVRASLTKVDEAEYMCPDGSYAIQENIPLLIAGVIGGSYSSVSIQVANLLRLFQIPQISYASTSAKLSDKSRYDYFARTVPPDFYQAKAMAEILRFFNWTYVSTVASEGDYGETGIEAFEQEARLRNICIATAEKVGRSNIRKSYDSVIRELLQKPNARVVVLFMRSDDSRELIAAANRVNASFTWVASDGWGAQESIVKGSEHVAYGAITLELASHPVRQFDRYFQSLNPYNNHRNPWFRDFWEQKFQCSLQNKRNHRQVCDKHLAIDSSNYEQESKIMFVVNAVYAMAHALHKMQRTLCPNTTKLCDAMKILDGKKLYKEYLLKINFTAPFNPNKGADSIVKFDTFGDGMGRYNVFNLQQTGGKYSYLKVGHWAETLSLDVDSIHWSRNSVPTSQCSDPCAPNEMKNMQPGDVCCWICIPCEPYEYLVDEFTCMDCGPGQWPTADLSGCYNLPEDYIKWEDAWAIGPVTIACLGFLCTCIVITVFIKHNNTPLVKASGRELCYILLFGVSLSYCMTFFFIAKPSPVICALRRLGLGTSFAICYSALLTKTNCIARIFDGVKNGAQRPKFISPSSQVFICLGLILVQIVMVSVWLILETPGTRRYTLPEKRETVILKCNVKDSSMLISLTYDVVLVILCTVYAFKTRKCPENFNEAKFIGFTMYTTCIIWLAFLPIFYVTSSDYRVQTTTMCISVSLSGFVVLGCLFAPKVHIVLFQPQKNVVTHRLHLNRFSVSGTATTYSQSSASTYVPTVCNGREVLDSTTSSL
Summary of the method: (§1)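 Cells expressing rat mGlu2 or mGlu3 with GIRK, plated overnight at 37 °C. Test compounds (0.3% DMSO, 10-point 1:3 series) preincubated 2.5 or 60 min, then thallium buffer plus EC80 glutamate added. Fluorescence slope 5–15 s after addition, normalised to vehicle and maximal agonist, fitted by four-parameter logistic.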

[2] = Plasma stability in vitro assay; assay type: in vitro ADME; details: rat plasma, 100 μM, 37.5° C.
Procedure: A 20 μL aliquot of a 10 mM solution in DMSO of the test compound was added to 2.0 mL of heparinized rat plasma (Lampire, P1-150N) to obtain a 100 μM final solution. The mixture was incubated for 1 h at 37.5° C. Aliquots of 100 μL were taken at 15 min intervals and diluted with 100 μL of MeOH/ACN. After mixing, the sample was centrifuged at approximately 13000 rpm for 12 min. The supernatant was filtered and transferred into an autosampler vial and the amount of test compound was quantified using the Shimadzu LCMS-2010EV system. The change of the AUC of the parent compound in function of time was used as a measure of plasma stability.

[3] = Microsomal stability in vitro assay; assay type: in vitro ADME; details: rat liver microsomes 1 mg/mL, 4 μM compound, 2 mM NADPH
Procedure: Pooled rat liver microsomes (BD Biosciences, #452701) were preincubated with test compounds at 37.5° C. for 5 min in the absence of NADPH. The reaction was initiated by addition of NADPH and incubated under the same conditions. The final incubation concentrations were 4 μM test compound, 2 mM NADPH, and 1 mg/mL (total protein) liver microsomes in phosphate-buffered saline (PBS) at pH 7.4. One aliquot (100 μL) of the incubation mixture was withdrawn at 15 min time points and combined immediately with 100 μL of ACN/MeOH. After mixing, the sample was centrifuged at approximately 13000 rpm for 12 min. The supernatant was filtered and transferred into an autosampler vial and the amount of test compound was quantified using a Shimadzu LCMS 2010EV mass spectrometer. The change of the AUC (area under the curve) of the parent compound as a function of time was used as a measure of microsomal stability. Test compounds were run in duplicate with a positive control.

[4] = molecular target: rat mGlu2 receptor (Rattus norvegicus (Rat), UniProt P31421); experiment: mGlu2 in vitro GIRK thallium flux assay; assay type: cell-based; details: NAM, EC80 glutamate, HEK-293 GIRK cells
rat mGlu2 receptor, sequence (P31421 19-872): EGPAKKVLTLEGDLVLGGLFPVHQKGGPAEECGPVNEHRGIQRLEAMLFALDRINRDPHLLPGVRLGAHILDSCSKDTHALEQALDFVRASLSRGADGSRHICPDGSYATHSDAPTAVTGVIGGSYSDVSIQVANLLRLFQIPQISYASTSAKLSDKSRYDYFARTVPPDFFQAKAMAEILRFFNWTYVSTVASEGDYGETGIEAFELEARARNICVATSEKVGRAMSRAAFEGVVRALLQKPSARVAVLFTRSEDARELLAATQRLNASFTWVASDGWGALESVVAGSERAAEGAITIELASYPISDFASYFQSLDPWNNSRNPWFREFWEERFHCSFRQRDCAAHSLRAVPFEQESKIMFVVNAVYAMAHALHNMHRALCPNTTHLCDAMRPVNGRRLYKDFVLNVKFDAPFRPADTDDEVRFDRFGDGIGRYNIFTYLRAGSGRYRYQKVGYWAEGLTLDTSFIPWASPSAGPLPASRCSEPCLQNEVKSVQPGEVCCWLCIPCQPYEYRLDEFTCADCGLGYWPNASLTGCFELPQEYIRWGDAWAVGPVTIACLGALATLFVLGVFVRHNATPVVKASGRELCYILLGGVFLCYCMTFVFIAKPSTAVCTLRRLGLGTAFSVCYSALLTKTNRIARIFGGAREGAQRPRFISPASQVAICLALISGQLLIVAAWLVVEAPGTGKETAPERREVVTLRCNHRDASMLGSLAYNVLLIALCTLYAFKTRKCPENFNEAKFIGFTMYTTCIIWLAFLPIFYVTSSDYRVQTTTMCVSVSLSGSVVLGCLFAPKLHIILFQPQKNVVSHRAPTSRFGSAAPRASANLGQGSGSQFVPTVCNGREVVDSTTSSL
Summary of the method: as §1

[5] = 2.5 min compound incubation, read-out: mGlu2 EC50 (μM) (2.5 min)
[6] = read-out: mGlu2 EC50 (μM) (60 min), 60 min compound incubation

Cc1cc2c(cc1C(F)(F)F)NC(=O)CC(c1cccc(S(=O)(=O)c3ncccn3)c1)=N2 [Example 137, 7-Methyl-4-(3-(pyrimidin-2-ylsulfonyl)phenyl)-8-(trifluoromethyl)-1H-benzo[b][1,4]diazepin-2(3H)-one]
EC50 [1]: 0.3 µM | Plasma Stability, Percent Remaining @ 1 hour [2]: 66% | Microsomal Stability, Percent Remaining @ 1 hour [3]: 68% | EC50 [4, 5]: 0.45 µM | EC50 [4, 6]: 0.06 µM

O=C1CC(c2cccc(-c3cccnc3)c2)=Nc2ccc(Br)cc2N1 [Example 179, 8-Bromo-4-(3-(pyridin-3-yl)phenyl)-1,3-dihydro-2H-benzo[b][1,4]diazepin-2-one]
EC50 [1]: 1.37 µM | Plasma Stability, Percent Remaining @ 1 hour [2]: 100% | Microsomal Stability, Percent Remaining @ 1 hour [3]: 30% | EC50 [4, 5]: 2.74 µM | EC50 [4, 6]: 0.02 µM

N#Cc1cc(C2=Nc3ccc(C(F)(F)F)cc3NC(=O)C2)ccn1 [Example 184, 4-(2-Oxo-8-(trifluoromethyl)-2,3-dihydro-H-benzo[b][1,4]diazepin-4-yl)picolinonitrile]
EC50 [1]: 0.41 µM | Plasma Stability, Percent Remaining @ 1 hour [2]: 100% | Microsomal Stability, Percent Remaining @ 1 hour [3]: 97% | EC50 [4, 5]: 0.49 µM | EC50 [4, 6]: 0.07 µM

COc1ccc(-c2ccc3c(c2)NC(=O)CC(c2ccnc(Cl)c2)=N3)cc1OC [Example 195, 4-(2-Chloropyridin-4-yl)-8-(3,4-dimethoxyphenyl)-1,3-dihydro-2H-benzo[b][1,4]diazepin-2-one]
EC50 [1]: 1.39 µM | EC50 [4, 5]: 3.83 µM | EC50 [4, 6]: 2.62 µM

Cc1cc(Cl)ccc1-c1ccc2c(c1)NC(=O)CC(c1ccnc(Cl)c1)=N2 [Example 196, 8-(4-Chloro-2-methylphenyl)-4-(2-chloropyridin-4-yl)-1,3-dihydro-2H-benzo[b][1,4]diazepin-2-one]
EC50 [1]: 2.94 µM | EC50 [4, 5]: 3.59 µM | EC50 [4, 6]: 0.6 µM

O=C1CC(c2ccnc(Cl)c2)=Nc2ccc(-c3ccccc3)cc2N1 [Example 197, 4-(2-Chloropyridin-4-yl)-8-phenyl-1,3-dihydro-2H-benzo[b][1,4]diazepin-2-one]
EC50 [1]: > 10 µM | EC50 [4, 5]: > 10 µM

O=C1CC(c2ccnc(-c3ccccc3)c2)=Nc2ccc(C(F)(F)F)cc2N1 [Example 198, 4-(2-Phenylpyridin-4-yl)-8-(trifluoromethyl)-1,3-dihydro-2H-benzo[b][1,4]diazepin-2-one]
EC50 [1]: 0.46 µM | EC50 [4, 5]: > 10 µM | EC50 [4, 6]: 0.26 µM

O=C1CC(c2ccnc(Cl)c2)=Nc2ccc(-c3ccc(Br)nc3)cc2N1 [Example 199, 8-(6-Bromopyridin-3-yl)-4-(2-chloropyridin-4-yl)-1,3-dihydro-2H-benzo[b][1,4]diazepin-2-one]
EC50 [1]: 1.82 µM | EC50 [4, 5]: 1.7 µM | EC50 [4, 6]: 4.27 µM

O=C1CC(c2ccnc(-c3ccccc3F)c2)=Nc2ccc(C(F)(F)F)cc2N1 [Example 200, 4-(2-(2-Fluorophenyl)pyridin-4-yl)-8-(trifluoromethyl)-1,3-dihydro-2H-benzo[b][1,4]diazepin-2-one]
EC50 [1]: 0.75 µM | EC50 [4, 5]: > 10 µM | EC50 [4, 6]: 0.22 µM

O=C1CC(c2ccnc(Cl)c2)=Nc2ccc(-c3ccc(C(F)(F)F)cc3F)cc2N1 [Example 201, 4-(2-Chloropyridin-4-yl)-8-(2-fluoro-4-(trifluoromethyl)phenyl)-1,3-dihydro-2H-benzo[b][1,4]diazepin-2-one]
EC50 [1]: 1.61 µM | EC50 [4, 5]: > 10 µM | EC50 [4, 6]: 0.52 µM

Cc1cc2c(cc1C(F)(F)F)NC(=O)CC(c1cccc(C#Cc3ccccc3)c1)=N2 [Example 202, 7-Methyl-4-(3-phenylethynyl-phenyl)-8-trifluoromethyl-1,3-dihydro-benzo[b][1,4]diazepin-2-one]
EC50 [1]: > 10 µM | EC50 [4, 5]: > 10 µM | EC50 [4, 6]: > 10 µM

Cc1cc2c(cc1C(F)(F)F)NC(=O)CC(c1cccc(C#CCO)c1)=N2 [Example 203, 4-[3-(3-Hydroxy-prop-1-ynyl)-phenyl]-7-methyl-8-trifluoromethyl-1,3-dihydro-benzo[b][1,4]diazepin-2-one]
EC50 [1]: 0.39 µM | EC50 [4, 5]: 0.65 µM | EC50 [4, 6]: 0.02 µM
